Experimental findings from patent US8642774B2, “Compounds” (Boehringer Ingelheim International GmbH, priority 2011, dated 2014) are described below.

The target in this assay is T1, human recombinant mGluR5 (Homo sapiens, UniProt P41594).
T1 construct: expressed in transfected cells; host or cells: HEK 293 cell line, cultured with tetracycline, hygromycin and geneticin; tetracycline is withdrawn 3-7 days before the assay
The assay is described as follows: positive modulation of mGluR5, calcium based FLIPR assay. The format is cell-based. Put shortly: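 HEK 293 cells expressing human recombinant mGluR5, tetracycline-free before assay, loaded with Calcium-4 dye in Ringer solution pH 7.4. Compounds (1% DMSO final) added for 5 min, then glutamate at about 5% of maximal effect; FLIPR peak Ca signal scaled between 1% DMSO (100%) and 10 μM CDPPB (200%) controls, EC50 by nonlinear regression.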

Where [1] appears, read: EC50 of the modulation, HEK 293 cell line expressing human recombinant mGluR5, peak height of Ca fluorescence signal after glutamate at approx. 5% basal stimulation, read-out: EC50.

Read-outs that look alike come from different tables or passages of the source.

T1 sequence (P41594 21-1212): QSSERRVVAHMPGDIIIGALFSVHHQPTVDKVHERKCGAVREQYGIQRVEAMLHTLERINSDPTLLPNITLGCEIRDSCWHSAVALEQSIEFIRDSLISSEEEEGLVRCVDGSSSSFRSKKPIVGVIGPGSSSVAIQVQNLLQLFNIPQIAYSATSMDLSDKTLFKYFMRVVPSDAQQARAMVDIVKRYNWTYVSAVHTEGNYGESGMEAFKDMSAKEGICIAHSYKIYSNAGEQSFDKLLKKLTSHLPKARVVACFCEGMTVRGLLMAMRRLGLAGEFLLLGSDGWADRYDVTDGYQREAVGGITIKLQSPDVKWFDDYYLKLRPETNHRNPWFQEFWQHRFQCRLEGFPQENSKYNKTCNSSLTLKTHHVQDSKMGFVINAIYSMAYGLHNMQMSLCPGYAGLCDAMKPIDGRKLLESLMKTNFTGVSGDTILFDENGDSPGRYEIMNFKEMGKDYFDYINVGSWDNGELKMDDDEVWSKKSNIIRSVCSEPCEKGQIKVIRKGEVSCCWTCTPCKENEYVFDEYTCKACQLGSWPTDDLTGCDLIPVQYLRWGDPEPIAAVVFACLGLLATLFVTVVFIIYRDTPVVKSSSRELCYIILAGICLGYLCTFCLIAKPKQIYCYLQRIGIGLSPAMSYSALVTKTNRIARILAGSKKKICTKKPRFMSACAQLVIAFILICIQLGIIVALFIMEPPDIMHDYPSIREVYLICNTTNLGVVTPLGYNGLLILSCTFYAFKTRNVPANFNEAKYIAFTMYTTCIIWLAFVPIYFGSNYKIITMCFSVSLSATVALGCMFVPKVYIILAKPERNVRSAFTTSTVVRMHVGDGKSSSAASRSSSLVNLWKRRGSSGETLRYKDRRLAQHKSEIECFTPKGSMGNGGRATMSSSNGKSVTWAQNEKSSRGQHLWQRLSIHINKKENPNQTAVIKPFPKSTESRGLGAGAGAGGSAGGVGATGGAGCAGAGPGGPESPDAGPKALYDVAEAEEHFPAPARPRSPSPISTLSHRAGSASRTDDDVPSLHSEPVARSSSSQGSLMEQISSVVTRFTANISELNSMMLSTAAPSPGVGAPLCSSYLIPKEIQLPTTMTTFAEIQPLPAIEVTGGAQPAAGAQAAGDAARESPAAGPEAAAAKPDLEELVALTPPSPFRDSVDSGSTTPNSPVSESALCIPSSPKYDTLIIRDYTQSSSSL

A word on the EC50: it is the midpoint of the concentration-response curve. As to `O=C(Cn1nc(-c2ccc(F)cc2)nc1-c1ccc(F)cc1)N1CC=C(c2ccccn2)CC1` [Example 7.03.024.], the EC50 under setting [1] came to 107 nM.

`Cn1c(=O)n(C2(C)CCN(C(=O)Cn3nc(-c4ccc(F)cc4)nc3-c3ccc(F)cc3)CC2)c2ccccc21` [Example 7.02.34.]: the EC50 under setting [1] was 1460 nM.

Take `CCCCc1nc(-c2ccc(F)c(C)c2)nn1CC(=O)N1CCc2nc(N)sc2CC1` [Example 7.03.102.]: the half-maximal effective concentration (EC50) under setting [1] was 293 nM.

Turning to `O=C(Cn1nc(-c2ccc(F)cc2)nc1-c1ccc(F)cc1)N1CCN(c2nc3ccccc3o2)CC1` [Example 7.03.047.], the EC50 under setting [1] was 140 nM.

As to `Cc1cnc(C2=CCN(C(=O)Cn3nc(-c4ccc(F)cc4)nc3-c3ccc(F)cc3)CC2)o1` [Example 7.03.036.], the EC50 under setting [1] is 49 nM.

Turning to `O=C(Cn1nc(-c2ccc(F)cc2)nc1-c1ccc(F)cc1)N1Cc2ccc(O)cc2C1` [Example 7.02.58.], under setting [1], the EC50 came to 214 nM.

On to `Nc1nc2c(s1)CN(C(=O)Cn1nc(-c3ccc(F)cc3)nc1-c1ccc(F)cc1)CC2` [Example 7.02.42.], for which the half-maximal effective concentration (EC50) under setting [1] was 1240 nM.

`CCc1nc(-c2ccc(F)c(C)c2)nn1CC(=O)N1CCc2nc(C)sc2CC1` [Example 7.03.081.]: the 50% effective concentration (EC50) under setting [1] amounted to 413 nM.

Regarding `Cc1nc2c(s1)CCN(C(=O)Cn1nc(-c3ccc(F)c(C)c3)nc1CC(C)C)CC2` [Example 7.03.098.], the EC50 under setting [1] came to 226 nM.

On to `O=C(Cn1nc(-c2ccc(F)cc2)nc1-c1ccc(F)cc1)N1CCN(c2ccccc2F)C(=O)C1` [Example 7.02.14.], for which the EC50 under setting [1] worked out at 537 nM.

On to `Cc1nc2c(s1)CN(C(=O)Cn1nc(-c3ccc(F)cc3)nc1-c1ccc(F)cc1)CC2` [Example 7.02.56.], for which the EC50 under setting [1] stood at 932 nM.

Regarding `O=C(Cn1nc(-c2ccc(F)cc2)nc1-c1ccc(F)cc1)N1CCN(c2noc3ccccc23)CC1` [Example 7.02.73.], under setting [1], the EC50 came out at 148 nM.

Turning to `Cc1nc2c(o1)CN(C(=O)Cn1nc(-c3ccc(F)cc3)nc1-c1ccc(F)cc1)CC2` [Example 7.02.54.], the half-maximal effective concentration (EC50) under setting [1] worked out at 206 nM.

As to `Cc1cc(-c2nc(C3CCCCC3C)n(CC(=O)N3CCc4nc(N)sc4CC3)n2)ccc1F` (centres unmarked) [Example 7.03.094.], under setting [1], the EC50 turned out to be 1090 nM.

Take `O=C(Cn1nc(-c2ccc(F)cc2)nc1-c1ccc(F)cc1)N1CCN(C2=NCCO2)CC1` [Example 7.03.042.]: the EC50 under setting [1] turned out to be 885 nM.

As for `CCNC(=O)Nc1nc2c(s1)CN(C(=O)Cn1nc(-c3ccc(F)cc3)nc1-c1ccc(F)cc1)CC2` [Example 7.02.15.], the EC50 under setting [1] was found to be 646 nM.

`CC(=O)Nc1nc2c(s1)CCN(C(=O)Cn1nc(-c3ccc(F)c(C)c3)nc1-c1ccccc1)CC2` [Example 7.02.77.]: the concentration giving a half-maximal response (EC50) under setting [1] was 232 nM.

With `COc1cc(-c2nc(-c3ccc(F)cc3)nn2CC(=O)N2CCc3nc(C)sc3CC2)ccc1F` [Example 7.03.069.], the EC50 under setting [1] was found to be 574 nM.

For `O=C(Cn1nc(-c2ccc(F)cc2)nc1-c1ccc(F)cc1)N1CCC(C(O)c2ccccc2)CC1` (centres unmarked) [Example 7.03.004.], under setting [1], the EC50 amounted to 1060 nM.

For `O=C(Cn1nc(-c2ccc(F)cc2)nc1-c1ccc(F)cc1)N1CCc2cn[nH]c2CC1` [Example 7.02.51.], the concentration for a half-maximal effect (EC50) under setting [1] stood at 707 nM.

On to `Cc1cnc(C2CCN(C(=O)Cn3nc(-c4ccc(F)cc4)nc3-c3ccc(F)cc3)CC2)o1` [Example 7.03.035.], for which the concentration for a half-maximal effect (EC50) under setting [1] stood at 170 nM.

Regarding `O=C(Cn1nc(-c2ccc(F)cc2)nc1-c1ccc(F)cc1)N1CCC(c2nccs2)CC1` [Example 7.02.18.], the 50% effective concentration (EC50) under setting [1] is 516 nM.

Turning to `Cc1nc2c(s1)CCN(C(=O)Cn1nc(-c3ccc(F)c(C)c3)nc1C1CCC(F)(F)CC1)CC2` [Example 7.03.097.], under setting [1], the concentration giving a half-maximal response (EC50) worked out at 502 nM.

`COc1ccc2c(c1)CCN(C(=O)Cn1nc(-c3ccc(F)cc3)nc1-c1ccc(F)cc1)C2C` (centres unmarked) [Example 7.02.36.]: under setting [1], the half-maximal effective concentration (EC50) stood at 1090 nM.

As for `CC(C)NC(=O)Nc1nc2c(s1)CN(C(=O)Cn1nc(-c3ccc(F)cc3)nc1-c1ccc(F)cc1)CC2` [Example 7.02.16.], the concentration giving a half-maximal response (EC50) under setting [1] came to 1360 nM.

For `O=C(Cn1nc(-c2ccc(F)cc2)nc1-c1ccc(F)cc1)N1CCc2nc(-c3ccccc3)ncc2C1` [Example 7.03.002.], the EC50 under setting [1] came to 708 nM.

Turning to `O=C(Cn1nc(-c2ccc(F)cc2)nc1-c1ccc(F)cc1)N1CCc2cc(F)ccc2C1` [Example 7.02.05.], the concentration giving a half-maximal response (EC50) under setting [1] came out at 900 nM.

Take `O=C(Cn1nc(-c2ccc(F)cc2)nc1-c1ccc(F)cc1)N1Cc2nc(-c3ccccc3)sc2C1` [Example 7.02.63.]: the half-maximal effective concentration (EC50) under setting [1] came to 1010 nM.

Regarding `Cc1nc2c(s1)CC(C)N(C(=O)Cn1nc(-c3ccc(F)c(C)c3)nc1-c1ccccc1)CC2` (centres unmarked) [Example 7.02.81.], the 50% effective concentration (EC50) under setting [1] was 175 nM.

Turning to `COc1ccc(-c2nc(-c3ccc(F)cc3)n(CC(=O)N3CCc4nc(N)sc4CC3)n2)cc1` [Example 7.03.055.], the EC50 under setting [1] stood at 100 nM.

`O=C(Cn1nc(-c2ccc(F)cc2)nc1-c1ccc(F)cc1)N1CCC(c2ncc(Cl)cn2)CC1` [Example 7.02.50.]: the EC50 under setting [1] was found to be 216 nM.

On to `Cc1nc2c(s1)CN(C(=O)Cn1nc(-c3ccc(F)c(C)c3)nc1C1CCC(C)CC1)C2` (centres unmarked) [Example 7.03.091.], for which the EC50 under setting [1] came out at 1680 nM.

As to `Cc1ncc2c(n1)CCN(C(=O)Cn1nc(-c3ccc(F)cc3)nc1-c1ccc(F)cc1)C2` [Example 7.02.55.], the half-maximal effective concentration (EC50) under setting [1] stood at 1200 nM.

Regarding `Nc1nc2c(s1)CCN(C(=O)Cn1nc(-c3ccc(F)cc3)nc1-c1ccc(F)cc1)CC2` [Example 7.03.013.], under setting [1], the EC50 was 141 nM.

As for `O=C(Cn1nc(-c2ccc(F)cc2)nc1-c1ccc(F)cc1)N1CCc2ncnc(-c3ccccc3)c2CC1` [Example 7.02.37.], the EC50 under setting [1] was determined as 708 nM.

As to `O=C(Cn1nc(-c2ccc(F)cc2)nc1-c1ccc(F)cc1)N1CCC(OCC2CC2)CC1` [Example 7.02.06.], under setting [1], the EC50 came to 1400 nM.

`COc1cccc2c1CN(C(=O)Cn1nc(-c3ccc(F)cc3)nc1-c1ccc(F)cc1)C2` [Example 7.02.46.]: the concentration giving a half-maximal response (EC50) under setting [1] is 381 nM.

Turning to `O=C(Cn1nc(-c2ccc(F)cc2)nc1-c1ccc(F)cc1)N1CCN(c2ncnc3sccc23)CC1` [Example 7.02.74.], the concentration for a half-maximal effect (EC50) under setting [1] is 798 nM.

Consider `Cc1nnc(N2CCN(C(=O)Cn3nc(-c4ccc(OC(F)F)cc4)nc3-c3ccccc3)CC2)o1` [Example 7.03.134], for which the concentration giving a half-maximal response (EC50) under setting [1] worked out at 129 nM.

As to `CNC(=O)Nc1nc2c(s1)CN(C(=O)Cn1nc(-c3ccc(F)cc3)nc1-c1ccc(F)cc1)CC2` [Example 7.02.17.], the concentration giving a half-maximal response (EC50) under setting [1] worked out at 1060 nM.

For `Cc1nc2c(o1)CCN(C(=O)Cn1nc(-c3ccc(F)c(C)c3)nc1-c1ccccc1)C2` [Example 7.02.92.], the EC50 under setting [1] came out at 46 nM.

For the molecule `COc1cc2c(cc1OC)CN(C(=O)Cn1nc(-c3ccc(F)cc3)nc1-c1ccc(F)cc1)CC2` [Example 7.03.006.], the EC50 under setting [1] turned out to be 1680 nM.

In the case of `Cc1nc2c(s1)CN(C(=O)Cn1nc(-c3ccc(F)cc3)nc1-c1ccc(F)cc1)C2` [Example 7.02.23.], under setting [1], the EC50 amounted to 278 nM.

With `COc1cccc(N2CCN(C(=O)Cn3nc(-c4ccc(F)cc4)nc3-c3ccc(F)cc3)CC2=O)n1` [Example 7.03.041.], the EC50 under setting [1] was found to be 161 nM.

For `COc1ccc(-c2nc(-c3ccccc3)n(CC(=O)N3Cc4nc(C)oc4C3)n2)cc1` [Example 7.03.132], the half-maximal effective concentration (EC50) under setting [1] worked out at 95 nM.

On to `Nc1nc2c(s1)CCN(C(=O)Cn1nc(-c3ccc(F)cn3)nc1-c1ccc(F)cc1)CC2` [Example 7.03.115.], for which the 50% effective concentration (EC50) under setting [1] is 231 nM.

Consider `CCC(C)c1nc(-c2ccc(F)c(C)c2)nn1CC(=O)N1CCc2nc(C)sc2CC1` (centres unmarked) [Example 7.03.086.], for which the EC50 under setting [1] was determined as 379 nM.

Take `COc1cc(-c2nc(-c3ccc(F)cc3)n(CC(=O)N3CCc4nc(N)sc4CC3)n2)ccc1F` [Example 7.03.088.]: the 50% effective concentration (EC50) under setting [1] came out at 60 nM.

Consider `COc1cnc(C2=CCN(C(=O)Cn3nc(-c4ccc(F)c(C)c4)nc3C(C)C)CC2)nc1` [Example 7.03.080.], for which the EC50 under setting [1] was found to be 1140 nM.

For `Nc1nnc(C2CCN(C(=O)Cn3nc(-c4ccc(F)cc4)nc3-c3ccc(F)cc3)CC2)o1` [Example 7.02.45.], the concentration for a half-maximal effect (EC50) under setting [1] was 1000 nM.

Regarding `Cc1noc(C2CCN(C(=O)Cn3nc(-c4ccc(F)cc4)nc3-c3ccc(F)cc3)CC2)n1` [Example 7.02.61.], the 50% effective concentration (EC50) under setting [1] was found to be 511 nM.

Regarding `O=C(Cn1nc(-c2ccc(F)cc2)nc1-c1ccc(F)cc1)N1CCC(Nc2ccccc2)CC1` [Example 7.02.20.], the concentration giving a half-maximal response (EC50) is 1530 nM.

For `COc1ccc(-c2nc(-c3ccccc3)n(CC(=O)N3CCc4nc(C)oc4C3)n2)cc1` [Example 7.03.052.], under setting [1], the EC50 was 323 nM.

Turning to `O=C(Cn1nc(-c2ccc(F)cc2)nc1-c1ccc(F)cc1)N1CCC(c2ncccn2)CC1` [Example 7.03.012.], the EC50 under setting [1] amounted to 1470 nM.

Regarding `O=C(Cn1nc(-c2ccc(F)cc2)nc1-c1ccc(F)cc1)N1CCc2cccnc2CC1` [Example 7.02.67.], the EC50 under setting [1] was found to be 133 nM.

For the molecule `Cc1nnc(N2CCN(C(=O)Cn3nc(-c4ccc(F)cc4)nc3-c3ccc(F)cc3)CC2)o1` [Example 7.03.045.], the EC50 under setting [1] amounted to 155 nM.

As to `O=C(Cn1nc(-c2ccc(F)cc2)nc1-c1ccc(F)cc1)N1CCc2ncsc2CC1` [Example 7.06.01., 2-(3,5-bis-(4-Fluoro-phenyl)-(1,2,4)triazol-1-yl]-1-(4,5,7,8-tetrahydro-thiazolo[4,5-d]azepin-6-yl)-ethanone], under setting [1], the EC50 worked out at 1130 nM.

As for `CN(C)c1nc2c(s1)CCN(C(=O)Cn1nc(-c3ccc(F)cc3)nc1-c1ccc(F)cc1)CC2` [Example 7.04.03.], the concentration giving a half-maximal response (EC50) under setting [1] stood at 346 nM.

`Nc1nc2c(s1)CCN(C(=O)Cn1nc(-c3ccccc3)nc1-c1ccccc1)CC2` [Example 7.03.049.]: the EC50 under setting [1] came to 1440 nM.

`CCCCCc1nc(-c2ccc(F)c(C)c2)nn1CC(=O)N1Cc2nc(C)sc2C1` [Example 7.03.108.]: the EC50 under setting [1] came out at 201 nM.

Regarding `O=C(c1ccccc1)C1CCN(C(=O)Cn2nc(-c3ccc(F)cc3)nc2-c2ccc(F)cc2)CC1` [Example 7.02.71.], the EC50 under setting [1] stood at 441 nM.

With `COc1cccc2c1CCN(C(=O)Cn1nc(-c3ccc(F)cc3)nc1-c1ccc(F)cc1)C2` [Example 7.02.08.], the EC50 under setting [1] was 666 nM.
